Tests used:
Type in all cases: physicochemical
[1] = Compatibility with cosmetics additives (absence of precipitates and/or severe discolorations); settings: 18.75% water
Experimental: (§1) To 100 parts by weight of a preparation consisting of 18.75% by weight of K sorbate, 31.25% by weight of phenoxyethanol, 31.25% by weight of benzyl alcohol and 18.75% by weight of demineralized water were added, in individual experiments, up to 4 parts by weight of a number of cosmetics additives, and the compatibility was tested (test for absence of precipitates and/or severe discolorations). […] The above-mentioned preparation was incompatible with the antimicrobial active ingredients Vantocil IB (polyhexamethylene biguanide), bronopol and dibromodicyanobutane since in each case the addition of these active ingredients and storage led to severe discoloration of the solution.
as §1, with “of 15%” for “of 18.75%”, “sorbate, 30%” for “sorbate, 31.25%”, “of Na benzoate, 5%” for “of phenoxyethanol, 31.25%”, “of phenoxyethanol” for “of benzyl alcohol”, “and 50%” for “and 18.75%”, “The abovementioned” for “The above-mentioned”
A preparation consisting of 18.75% by weight of K sorbate, 28.75% by weight of benzyl alcohol, 28.75% by weight of phenoxyethanol, 18.75% by weight of demineralized water and 5% by weight of cosmetics additive was prepared.

[2] = as above; settings: Example 6B: up to 4 parts additive to 100 parts of 15% K sorbate, 30% Na benzoate, 5% phenoxyethanol, 50% water
[3] = Colour stability, Hazen colour number; settings: addition to liquid concentrates, Examples 5D-5F
Experimental: The Hazen colour number is the number of mg of platinum [as potassium hexachloroplatinate (IV) containing cobalt (II) chloride hexahydrate in a ratio of 1.246:1 dissolved in 1000 ml of aqueous hydrochloric acid] which has virtually the same colour as the sample when the path length is the same.
Improvement in the Colour Stability of the Liquid Concentrates According to the Invention

[4] = Example 6C: 5% additive in 18.75% K sorbate, 28.75% benzyl alcohol, 28.75% phenoxyethanol
[5] = Example 6A: up to 4 parts additive to 100 parts of 18.75% K sorbate, 31.25% phenoxyethanol, 31.25% benzyl alcohol

Molecule | compatibility of additive with preparation [1, 4] | compatibility of additive with preparation [1, 5] | compatibility of additive with preparation [2] | effect of additive on colour stability [3]
O=C1O[C@H]([C@@H](O)CO)C(O)=C1O [ascorbic acid] | – | sufficiently compatible | sufficiently compatible | –
benzalkonium chloride | – | sufficiently compatible | sufficiently compatible | –
O=C([O-])CC(O)(CC(=O)[O-])C(=O)[O-].[Na+].[Na+].[Na+] [sodium citrate] | – | – | – | significantly improves the colour stability
CCCCNC(=O)OCC#CI [iodopropynylbutyl carbamate] | – | sufficiently compatible | sufficiently compatible | –
OCCCc1ccccc1 [3-phenyl-1-propanol] | – | sufficiently compatible | sufficiently compatible | –
Cl/C=C\C[N+]12CN3CN(CN(C3)C1)C2.[Cl-] [Dowicil 200] | sufficiently compatible | – | – | –
Cc1cc(C(C)(C)C)c(O)c(C(C)(C)C)c1 [2,6-di-tert-butyl-p-cresol] | – | sufficiently compatible | sufficiently compatible | –
COc1ccc(O)c(C(C)(C)C)c1 [3-tert-butyl-4-hydroxyanisole] | – | sufficiently compatible | sufficiently compatible | –
N#CCCC(Br)(C#N)CBr (stereo not drawn) [dibromodicyanobutane] | – | incompatible | incompatible | –
CC1(C)C(=O)N(CO)C(=O)N1CO [Glydant XL 1000, 1,3-dimethylol-5,5-dimethylhydantoin] | – | sufficiently compatible | sufficiently compatible | –

More lines, main results first:

compatibility of additive with preparation [1, 4] | compatibility of additive with preparation [1, 5] | compatibility of additive with preparation [2] | Molecule | effect of additive on colour stability [3]
sufficiently compatible | – | – | COC(=O)c1ccc(O)cc1 [methylparaben] | –
sufficiently compatible | – | – | CCCOC(=O)c1ccc(O)cc1 [propylparaben] | –
– | sufficiently compatible | sufficiently compatible | OCCc1ccccc1 [phenethyl alcohol] | –
– | sufficiently compatible | sufficiently compatible | O=C([O-])C(O)c1ccccc1.[K+] (stereo not drawn) [potassium salt of mandelic acid] | –
– | sufficiently compatible | sufficiently compatible | vitamin E | –
– | incompatible | incompatible | O=[N+]([O-])C(Br)(CO)CO [bronopol] | –
– | sufficiently compatible | sufficiently compatible | O=C1O[C@H]([C@@H](O)CO)C([O-])=C1O.[Na+] [sodium ascorbate] | –
– | sufficiently compatible | sufficiently compatible | CC(C)=CCCC(C)=CCCC(C)=CCO [farnesol] | –
– | sufficiently compatible | sufficiently compatible | CC(C)(CO)[C@@H](O)C(=O)NCCCO [dexpanthenol] | –
– | sufficiently compatible | sufficiently compatible | CCOC(=O)c1ccc(O)cc1 [ethylparaben] | –

Source: US8197833B2, “Liquid concentrate for preserving cosmetics” (Air Liquide Sante (International), priority 1999, dated 2012)
